Article PMC11714696 (2024)

Key:
[1] = test system: poly(A·U) (RNA, polymer) A/U; experiment: UV melting at 260 nm; conditions: Na+ (25 mM NaCl, 10 mM sodium cacodylate); 10 mM cacodylate pH 7.0; 10 and 15 μM Nile blue; free Tm about 46.0 °C
[2] = test system: poly(I·C) (RNA, polymer, inosine (hypoxanthine base) at every position of strand 1 (written as G)) G/C; experiment: UV melting at 260 nm; conditions: Na+ (25 mM NaCl, 10 mM sodium cacodylate); 10 mM cacodylate pH 7.0; 10 and 15 μM Nile blue; free Tm about 48.0 °C
[3] = test system: poly(A·U) (RNA, polymer) A/U; experiment: absorption titration, Benesi-Hildebrand; conditions: Na+ (25 mM NaCl, 10 mM sodium cacodylate); 10 mM cacodylate pH 7.0, 0.1 mM Na2EDTA; RNA concentration by ε260 14280; per base
[4] = test system: poly(I·C) (RNA, polymer, inosine (hypoxanthine base) at every position of strand 1 (written as G)) G/C; experiment: absorption titration, Benesi-Hildebrand; conditions: Na+ (25 mM NaCl, 10 mM sodium cacodylate); 10 mM cacodylate pH 7.0, 0.1 mM Na2EDTA; RNA concentration by ε260 10000; per base
[5] = test system: poly(A·U) (RNA, polymer) A/U; experiment: fluorescence titration, Benesi-Hildebrand; conditions: Na+ (25 mM NaCl, 10 mM sodium cacodylate); 10 mM cacodylate pH 7.0, 0.1 mM Na2EDTA; RNA concentration by ε260 14280; per base
[6] = test system: poly(I·C) (RNA, polymer, inosine (hypoxanthine base) at every position of strand 1 (written as G)) G/C; experiment: fluorescence titration, Benesi-Hildebrand; conditions: Na+ (25 mM NaCl, 10 mM sodium cacodylate); 10 mM cacodylate pH 7.0, 0.1 mM Na2EDTA; RNA concentration by ε260 10000; per base

CC[N+](CC)=c1ccc2nc3c(cc(N)c4ccccc43)oc-2c1
binding [1]: yes
binding [2]: yes
KBH [3]: 586000 M⁻¹
KBH [4]: 116000 M⁻¹
KBH [5]: 211000 M⁻¹
KBH [6]: 113000 M⁻¹
